According to US11639353B2, “Cyclobutanes- and azetidine-containing mono and spirocyclic compounds as αV integrin inhibitors” (BRISTOL-MYERS SQUIBB COMPANY, priority 2016, dated 2023):
pIC50: −log10 of the molar value. Where a name gives a salt, the structure may show the parent alone.

Assays:
Settings in all cases: alternatively SPA-based assay
human αVβ6 = target: T1, human αVβ6 (Homo sapiens, UniProt P06756+P18564); test: human αVβ6 HTRF binding assay
T1 construct: purchased R & D systems 3817-AV
T1 sequence (P06756 31-992 limits assumed): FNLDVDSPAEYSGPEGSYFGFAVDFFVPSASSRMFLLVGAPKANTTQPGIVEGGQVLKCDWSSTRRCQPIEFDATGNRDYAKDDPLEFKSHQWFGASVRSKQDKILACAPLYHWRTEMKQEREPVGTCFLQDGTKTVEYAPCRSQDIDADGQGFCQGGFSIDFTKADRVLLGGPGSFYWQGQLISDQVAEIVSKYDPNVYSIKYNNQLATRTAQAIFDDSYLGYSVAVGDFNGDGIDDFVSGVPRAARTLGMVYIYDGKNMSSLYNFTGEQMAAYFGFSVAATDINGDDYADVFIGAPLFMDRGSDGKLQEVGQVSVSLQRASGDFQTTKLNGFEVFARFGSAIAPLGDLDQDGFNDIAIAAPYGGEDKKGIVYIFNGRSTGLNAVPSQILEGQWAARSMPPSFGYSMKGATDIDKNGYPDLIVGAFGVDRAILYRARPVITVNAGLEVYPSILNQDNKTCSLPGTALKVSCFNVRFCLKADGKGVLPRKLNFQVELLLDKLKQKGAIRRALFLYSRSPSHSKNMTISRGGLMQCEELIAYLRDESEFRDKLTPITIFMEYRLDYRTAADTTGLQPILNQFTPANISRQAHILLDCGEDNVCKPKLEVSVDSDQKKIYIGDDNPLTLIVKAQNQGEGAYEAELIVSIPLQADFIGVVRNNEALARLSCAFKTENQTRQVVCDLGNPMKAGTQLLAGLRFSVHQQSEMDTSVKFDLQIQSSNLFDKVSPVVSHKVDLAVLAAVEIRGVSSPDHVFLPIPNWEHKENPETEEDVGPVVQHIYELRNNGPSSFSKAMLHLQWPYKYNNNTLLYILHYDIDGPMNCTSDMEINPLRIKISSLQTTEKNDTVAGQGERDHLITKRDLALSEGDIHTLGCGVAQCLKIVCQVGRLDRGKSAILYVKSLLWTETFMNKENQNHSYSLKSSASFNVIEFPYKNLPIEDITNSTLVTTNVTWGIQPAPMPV
T1 sequence (P18564 22-707 limits assumed): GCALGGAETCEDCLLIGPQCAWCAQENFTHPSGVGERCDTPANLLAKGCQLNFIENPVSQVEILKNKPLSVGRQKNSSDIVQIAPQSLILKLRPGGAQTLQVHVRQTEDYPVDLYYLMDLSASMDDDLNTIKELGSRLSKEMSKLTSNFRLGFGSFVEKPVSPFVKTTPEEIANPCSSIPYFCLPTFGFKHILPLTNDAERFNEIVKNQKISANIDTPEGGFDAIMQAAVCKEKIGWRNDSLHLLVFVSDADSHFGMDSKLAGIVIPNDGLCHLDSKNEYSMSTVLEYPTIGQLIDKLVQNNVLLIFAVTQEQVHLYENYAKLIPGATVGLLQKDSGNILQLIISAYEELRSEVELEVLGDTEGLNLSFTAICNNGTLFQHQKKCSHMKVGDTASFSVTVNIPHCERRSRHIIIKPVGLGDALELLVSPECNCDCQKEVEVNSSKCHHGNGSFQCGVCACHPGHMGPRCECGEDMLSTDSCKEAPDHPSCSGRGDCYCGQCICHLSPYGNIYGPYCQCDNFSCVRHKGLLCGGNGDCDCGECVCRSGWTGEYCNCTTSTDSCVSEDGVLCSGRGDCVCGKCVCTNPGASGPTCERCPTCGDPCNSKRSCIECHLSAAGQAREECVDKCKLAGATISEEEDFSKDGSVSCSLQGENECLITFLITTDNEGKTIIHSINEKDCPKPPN
How it was run: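 Biotinylated recombinant human αVβ6 (1.25 nM final) incubated with FITC-fibronectin (5 nM final) 1 h at RT, then streptavidin-terbium (0.625 nM final) added and left overnight at RT in the dark before HTRF reading. Buffer: 20 mM Tris pH 7.4, 1 mM MgCl2, 1 mM MnCl2, 0.01% Tween 20, 0.01% BSA.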

human αVβ1 = human αVβ1 (Homo sapiens, UniProt P05556+P06756); test: human αVβ1 HTRF binding assay
human αVβ1, sequence (P06756 31-992 limits assumed): as the sequence (P06756 31-992 limits assumed) above
human αVβ1, sequence (P05556 21-728 limits assumed): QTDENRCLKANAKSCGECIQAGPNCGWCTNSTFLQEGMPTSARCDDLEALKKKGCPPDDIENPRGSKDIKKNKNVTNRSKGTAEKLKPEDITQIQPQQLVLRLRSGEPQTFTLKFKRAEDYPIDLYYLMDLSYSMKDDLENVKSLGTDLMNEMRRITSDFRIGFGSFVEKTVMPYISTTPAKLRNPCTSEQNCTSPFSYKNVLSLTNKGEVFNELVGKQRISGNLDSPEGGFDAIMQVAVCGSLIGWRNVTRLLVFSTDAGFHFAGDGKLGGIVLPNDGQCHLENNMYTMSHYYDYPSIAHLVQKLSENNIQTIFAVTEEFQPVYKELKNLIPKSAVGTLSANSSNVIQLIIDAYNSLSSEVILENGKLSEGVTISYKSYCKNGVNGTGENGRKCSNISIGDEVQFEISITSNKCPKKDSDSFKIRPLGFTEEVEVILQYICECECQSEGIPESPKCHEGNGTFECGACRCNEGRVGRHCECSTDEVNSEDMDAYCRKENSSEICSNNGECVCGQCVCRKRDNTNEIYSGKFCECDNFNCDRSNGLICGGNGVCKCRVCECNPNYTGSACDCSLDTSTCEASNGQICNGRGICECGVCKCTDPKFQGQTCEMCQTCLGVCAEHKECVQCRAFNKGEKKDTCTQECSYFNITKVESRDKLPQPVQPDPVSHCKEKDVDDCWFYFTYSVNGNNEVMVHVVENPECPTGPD
Description: (§1) All binding assays used the HTRF (homogeneous time resolved fluorescence) technology from Cisbio International, therefore all assays are described as HTRF binding assays. The assay results for the Examples are listed above together with the characterization data. The HTRF binding assays are established for the following integrins: human αVβ6, human αVβ1, human αVβ3, human αVβ5, and human αVβ8. All assays used the following assay buffer: 20 mM Tris, pH 7.4, 1 mM MgCl2, 1 mM MnCl2, 0.01% Tween 20, and 0.01% BSA. Alternatively, a SPA-based assay was used for evaluation of receptor binding.
(§2) The SPA-based assay was carried out according to the protocol and procedures similar to the ones described in the following reference with appropriate modifications to agents and ligands which are readily understood by one skilled in the art: Pachter J A, Zhang R, Mayer-Ezell R., “Scintillation proximity assay to measure binding of soluble fibronectin to antibody-captured αVβ1 integrin” Anal Biochem. 1995 Sep. 1; 230(1):101-7.

human αVβ3 = human αVβ3 (Homo sapiens, UniProt P05106+P06756); test: human αVβ3 HTRF binding assay
human αVβ3, sequence (P06756 31-992 limits assumed): as the sequence (P06756 31-992 limits assumed) above
human αVβ3, sequence (P05106 27-718 limits assumed): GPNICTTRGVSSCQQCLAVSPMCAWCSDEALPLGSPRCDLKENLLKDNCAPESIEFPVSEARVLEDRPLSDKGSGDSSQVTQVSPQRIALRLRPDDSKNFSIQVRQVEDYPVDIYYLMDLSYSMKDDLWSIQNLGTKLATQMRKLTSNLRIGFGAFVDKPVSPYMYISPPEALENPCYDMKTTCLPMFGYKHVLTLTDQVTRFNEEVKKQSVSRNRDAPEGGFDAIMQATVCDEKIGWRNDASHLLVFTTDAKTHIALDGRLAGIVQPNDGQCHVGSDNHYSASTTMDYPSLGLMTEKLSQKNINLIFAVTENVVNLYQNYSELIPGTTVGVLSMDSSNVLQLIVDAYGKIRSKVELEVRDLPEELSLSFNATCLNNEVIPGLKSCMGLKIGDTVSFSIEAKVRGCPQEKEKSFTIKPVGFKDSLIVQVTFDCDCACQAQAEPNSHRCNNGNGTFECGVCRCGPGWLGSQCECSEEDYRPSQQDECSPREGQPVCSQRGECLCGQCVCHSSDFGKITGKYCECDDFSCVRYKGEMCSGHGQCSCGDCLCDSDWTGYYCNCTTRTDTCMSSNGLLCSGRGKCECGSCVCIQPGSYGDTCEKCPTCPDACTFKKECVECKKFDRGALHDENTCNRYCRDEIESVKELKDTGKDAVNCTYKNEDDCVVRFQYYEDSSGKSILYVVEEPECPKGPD
Description: as §1, §2

human αVβ8 = human αVβ8 (Homo sapiens, UniProt P06756+P26012); test: human αVβ8 HTRF binding assay
human αVβ8, sequence (P06756 31-992 limits assumed): as the sequence (P06756 31-992 limits assumed) above
human αVβ8, sequence (P26012 43-684 limits assumed): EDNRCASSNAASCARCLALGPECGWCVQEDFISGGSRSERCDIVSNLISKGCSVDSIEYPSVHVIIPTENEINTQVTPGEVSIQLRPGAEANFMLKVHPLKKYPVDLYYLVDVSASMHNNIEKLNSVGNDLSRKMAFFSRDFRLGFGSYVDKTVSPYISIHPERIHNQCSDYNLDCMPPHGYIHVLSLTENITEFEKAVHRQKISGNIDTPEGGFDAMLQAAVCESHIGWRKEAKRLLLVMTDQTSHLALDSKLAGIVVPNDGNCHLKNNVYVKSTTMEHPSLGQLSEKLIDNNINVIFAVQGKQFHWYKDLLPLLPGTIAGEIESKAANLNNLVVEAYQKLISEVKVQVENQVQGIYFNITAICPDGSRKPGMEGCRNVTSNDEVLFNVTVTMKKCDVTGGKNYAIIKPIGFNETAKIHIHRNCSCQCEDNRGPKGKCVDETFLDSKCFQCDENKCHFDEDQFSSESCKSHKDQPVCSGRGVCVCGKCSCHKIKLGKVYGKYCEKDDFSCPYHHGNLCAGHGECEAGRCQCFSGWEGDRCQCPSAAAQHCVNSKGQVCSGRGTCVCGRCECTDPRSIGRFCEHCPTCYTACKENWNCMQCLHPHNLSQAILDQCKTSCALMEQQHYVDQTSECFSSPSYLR
Description: as §1, §2

| Compound | pIC50 (human αVβ6) | also measured |
| --- | --- | --- |
| O=C(O)C[C@H](NC(=O)[C@H]1C[C@@H](CCc2ccc3c(n2)NCCC3)C1)c1cnc2ccccc2c1 [Example 85] | 9.17 | pIC50 (human αVβ1): 6.48; pIC50 (human αVβ3): 8.68; pIC50 (human αVβ8): 6.85 |
| COc1ccc([C@H](CC(=O)O)N2CC(CCCCc3ccc4c(n3)NCCC4)C2)cc1F [Example 27, (S)-3-(3-Fluoro-4-methoxyphenyl)-3-(3-(4-(5,6,7,8-tetrahydro-1,8-naphthyridin-2-yl)butyl)azetidin-1-yl)propanoic acid] | 9.24 | pIC50 (human αVβ8): 7.96 |
| O=C(O)C[C@@H](c1ccc2c(c1)OCC2)N1CC(CCCCc2ccc3c(n2)NCCC3)C1=O (stereo partly drawn) [Example 104] | 8.65 | pIC50 (human αVβ1): 6.48; pIC50 (human αVβ3): 8.62; pIC50 (human αVβ8): 6.96 |
| O=C(O)C[C@H](NC(=O)[C@H]1C[C@@H](CCc2ccc3c(n2)NCCC3)C1)c1ccc2c(c1)OCC2 [Example 89] | 8.66 | pIC50 (human αVβ3): 8.82; pIC50 (human αVβ8): 6.60 |
| O=C(O)C[C@H](NC(=O)C1CC2(C1)CN(C(=O)CCc1ccc3c(n1)NCCC3)C2)c1cc(Cl)cc(Cl)c1 [Example 1, (S)-3-(3,5-Dichlorophenyl)-3-(2-(3-(5,6,7,8-tetrahydro-1,8-naphthyridin-2-yl)propanoyl)-2-azaspiro[3.3]heptane-6-carboxamido)propanoic acid, TFA] | 6.38 |  |
| COc1ccc(C(CC(=O)O)C2CC3(CC(CCc4ccc5c(n4)NCCC5)C3)C2)cn1 (stereo not drawn) [Example 141] | 8.54 |  |
| O=C(O)CC(c1cccc(N2CCOCC2)c1)C1CC(CCCCc2ccc3c(n2)NCCC3)C1 (stereo not drawn) [Example 146, 3-(3-Morpholinophenyl)-3-(3-(4-(5,6,7,8-tetrahydro-1,8-naphthyridin-2-yl)butyl)cyclobutyl)propanoic acid] | 7.85 |  |
| COc1ccc(C(NC(=O)C2CC(CCc3ccc4c(n3)NCCC4)C2)C(C)(C)C(=O)O)cn1 (stereo not drawn) [Example 191] | 5.37 |  |
| COc1ncc([C@H](CC(=O)O)NC(=O)N2CC(CCc3ccc4c(n3)NCCC4)C2)cn1 [Example 123] | 8.37 |  |
| COc1ccc([C@H](CC(=O)O)N2CC(c3ccc(-c4ccc5c(n4)NCCC5)cc3)C2=O)cn1 (single isomer, unassigned) [Example 184] | 8.40 |  |
| COc1ccc(C(NC(=O)C2CC(CCc3ccc4c(n3)NCCC4)C2)C(C)(C)C(=O)O)cn1 (single isomer, unassigned) [Example 190, 3-(6-methoxypyridin-3-yl)-2,2-dimethyl-3-(3-(2-(5,6,7,8-tetrahydro-1,8-naphthyridin-2-yl)ethyl)cyclobutane-1-carboxamido)propanoic acid] | 5.48 |  |
| O=C(N[C@@H](CC(=O)N1CC(CCc2ccc3c(n2)NCCC3)C1)C(=O)O)OCc1ccccc1 [Example 7, (S)-2-(((Benzyloxy)carbonyl)amino)-4-oxo-4-(3-(2-(5,6,7,8-tetrahydro-1,8-naphthyridin-2-yl)ethyl)azetidin-1-yl)butanoic acid] | 7.19 |  |
| O=C(O)CC(c1cnc2ccccc2c1)C1CC2(C1)CN(CCCc1ccc3c(n1)NCCC3)C2 (stereo not drawn) [Example 117] | 8.57 |  |
| O=C(O)C[C@H](NC(=O)C1CC2(CC(NC(=O)CCc3ccc4c(n3)NCCC4)C2)C1)c1cc(Cl)cc(Cl)c1 (stereo partly drawn) [Example 30] | 5.48 |  |
| COc1ccc([C@H](CC(=O)O)NC(=O)C2CC3(C2)CN(CCc2ccc4c(n2)NCCC4)C3)cn1 [Example 2, (S)-3-(6-Methoxypyridin-3-yl)-3-(2-(2-(5,6,7,8-tetrahydro-1,8-naphthyridin-2-yl)ethyl)-2-azaspiro[3.3]heptane-6-carboxamido)propanoic acid, 3TFA] | 7.89 |  |
| CN(C1CC2(C1)CN(CCc1ccc3c(n1)NCCC3)C2)[C@@H](CC(=O)O)c1cc(Cl)cc(Cl)c1 [Example 20, (S)-3-(3,5-Dichlorophenyl)-3-(methyl(2-(2-(5,6,7,8-tetrahydro-1,8-naphthyridin-2-yl)ethyl)-2-azaspiro[3.3]heptan-6-yl)amino)propanoic acid] | 7.80 |  |
| CCOC(=O)C[C@H](NC(=O)C1CC2(C1)CN(CCc1ccc3c(n1)NCCC3)C2)c1cc(Cl)cc(Cl)c1 [Example 49] | 6.32 |  |

| Compound | pIC50 (human αVβ6) | also measured |
| --- | --- | --- |
| O=C(O)C[C@H](NC(=O)N1CC(CCc2ccc3c(n2)NCCC3)C1)c1cncnc1 [Example 121] | 8.21 |  |
| O=C(O)CC(c1cccc(N2CCOCC2)c1)C1CC2(CC(CCc3ccc4c(n3)NCCC4)C2)C1 (stereo not drawn) [Example 145] | 8.57 |  |
| COc1ccc([C@H](CC(=O)O)NC(=O)N2CC(F)(CCc3ccc4c(n3)NCCC4)C2)cc1F [Example 76] | 9.02 |  |
| COc1ccc(C(CC(=O)O)C2CC(NCCCc3ccc4c(n3)NCCC4)C2)cc1F (stereo not drawn) [Example 126] | 8.38 |  |
| COc1ccc([C@H](CC(=O)O)NC(=O)C2CN(CCCc3ccc4c(n3)NCCC4)C2)cn1 [Example 40] | 8.80 |  |
| Cc1ncc(C(CC(=O)O)N2CC(OCCCc3ccc4c(n3)NCCC4)C2)cn1 (stereo not drawn) [Example 130, 3-(2-methylpyrimidin-5-yl)-3-(3-(3-(5,6,7,8-tetrahydro-1,8-naphthyridin-2-yl)propoxy)azetidin-1-yl)propanoic acid, 2 TFA] | 8.09 |  |
| COc1ccc([C@@H](CC(=O)O)N2CC(OCCCc3ccc4c(n3)NCCC4)C2)cc1F [Example 137, (R)-3-(3-fluoro-4-methoxyphenyl)-3-(3-(3-(5,6,7,8-tetrahydro-1,8-naphthyridin-2-yl)propoxy)azetidin-1-yl)propanoic acid] | 6.80 |  |
| O=C(O)C[C@@H](c1cc(Cl)cc(Cl)c1)N1CC(CCCCc2ccc3c(n2)NCCC3)C1=O (stereo partly drawn) [Example 108] | 9.14 |  |
| O=C(O)C[C@H](NC(=O)[C@H]1C[C@H](CCc2ccc3c(n2)NCCC3)C1)c1cc(Cl)cc(Cl)c1 [Example 92] | 8.92 |  |
| COc1ccc(C(NC(=O)C2CC(CCc3ccc4c(n3)NCCC4)C2)C(C)(C)C(=O)O)cn1 (stereo not drawn) [Example 192] | 5.36 |  |
| COc1ccc([C@H](CC(=O)O)C2(F)CN(C(=O)CCCc3ccc4c(n3)NCCC4)C2)cn1 (single isomer, unassigned) [Example 17] | 7.54 |  |
| COc1ccc(C(CC(=O)O)C2CC(NCCCc3ccc4c(n3)NCCC4)C2)cn1 (stereo not drawn) [Example 125] | 8.24 |  |
| Cc1ncc([C@H](CC(=O)O)NC(=O)[C@H]2C[C@H](CCc3ccc4c(n3)NCCC4)C2)cn1 [Example 86] | 8.82 | pIC50 (human αVβ3): 8.57; pIC50 (human αVβ8): 6.10 |
| COc1ccc([C@H](CC(=O)O)N2CC(c3ccc(-c4ccc5c(n4)NCCC5)cc3)C2=O)cn1 (single isomer, unassigned) [Example 183] | 8.70 |  |
| Cc1ncc([C@H](CC(=O)O)N2CC(COCCc3ccc4c(n3)NCCC4)C2)cn1 [example 129, (S)-3-(2-methylpyrimidin-5-yl)-3-(3-((2-(5,6,7,8-tetrahydro-1,8-naphthyridin-2-yl)ethoxy)methyl)azetidin-1-yl)propanoic acid] | 8.49 |  |
| O=C(O)[C@H](CN1CC(CCCc2ccc3c(n2)NCCC3)C1=O)NS(=O)(=O)c1ccc(F)cc1 (single isomer, unassigned) [Example 188] | 8.48 |  |
| COc1ccc([C@H](CC(=O)O)NC(=O)C2CC(C(Cc3ccc4c(n3)NCCC4)NS(=O)(=O)c3ccc(C)cc3)C2)cc1F (stereo partly drawn) [Example 25, (3S)-3-(3-Fluoro-4-methoxyphenyl)-3-(3-(1-(4-methylphenylsulfonamido)-2-(5,6,7,8-tetrahydro-1,8-naphthyridin-2-yl)ethyl)cyclobutanecarboxamido)propanoic acid] | 8.52 |  |
